# Assay results: patent US10196417B2, “Baicalin magnesium compound and its preparation method and application” (CHENGDE MEDICAL UNIVERSITY, priority 2016, dated 2019)
# Marks after values point to notes of the source that are not given here.
# Assays:
# [1] = Pharmacokinetic experiments (no data given); type: in vivo; settings: in words only
# [2] = tested on: xylene-induced ear swelling in mice; test: Anti-inflammatory activity: xylene-induced ear swelling; type: in vivo; settings: n = 8
# Method: 144 healthy mice were randomly divided into 3 groups, a baicalin group, a baicalin magnesium group and a control group. Each group was divided into six subgroups each having 8 mice according to time points (1 h, 3 h, 5 h, 7 h, 11 h and 15 h). Mice in the baicalin group were orally administrated (ig administration) at a dose of 100 mg·kg-1; mice in the baicalin magnesium group were orally administrated (ig administration) at a dose equivalent to 100 mg·kg-1 of baicalin; and mice in the control group were administrated with the same volume of normal saline. At 40 minutes before each time point, 100 μl of xylene was dropped in left ears of the mice in each group; when at a time point, the animals were sacrificed. Auricles of both ears of the mice were obtained with a puncher, and the difference in weight (swelling degree) between the left ear and the right ear was used as an indication of the anti-inflammatory effect of the drug.
# [3] = tested on: streptozotocin-induced diabetes rats (high-fat diet); test: Antidiabetic effect: blood glucose in streptozotocin-induced diabetes; type: in vivo, SD male rats; settings: 80 mg/kg baicalin or equivalent intragastric daily
# Method: Healthy SD male rats aged 6 to 8 weeks were randomly divided into 4 groups, a high-fat diet control group, a diabetes control group, a baicalin treatment group and a baicalin magnesium treatment group. The rats were raised for 1 week in advance. In the second week, all rats were fed with high-fat diet. After six weeks, the rats were fasted but with water for 12 hours. For the diabetes control group, the baicalin treatment group and the baicalin magnesium treatment group, rats were administrated by tail vein injection with 45 mg/kg of streptozotocin prepared from citrate buffer solution (pH=4.5). After 3 to 7 days, the fasting blood glucose was measured. The blood glucose level greater than 13 mmol/L was a criterion for the successful diabetes rate model. The rats in the high-fat diet control group were administrated by tail vein injection with the citrate buffer solution. After the model was built, the rats were intragastrically administrated in the morning every day. The rats in the baicalin group were administrated with baicalin at a dose of 80 mg/kg; the rates in the […] were administrated with baicalin magnesium at a dose equivalent to 80 mg/kg of baicalin; and the rats in the diabetes model group and the high-fat diet control group were intragastrically administrated the same volume of solvent once every day and for successive 6 weeks. After the molding and the administration, the blood glucose was measured in the third week and the sixth week. Single-factor variance analysis was performed on data by SPSS19.0 statistical software, and P<0.05 was of statistical significance.
# [4] = tested on: yeast-induced febrile rats; test: Antipyretic effect in yeast-induced febrile rats; type: in vivo, SD male rats; settings: for ΔT comparing the baicalin magnesium with the baicalin: difference between groups; for Body temperature change ΔT: intragastric 80 mg/kg baicalin or equivalent
# Method: SD male rats were randomly divided into 4 groups, a control group, a model group, a baicalin group and a baicalin magnesium group. Rats were raised in a normal day/night cycle and at room temperature (22±2° C.) and a relative humidity of (50±2)%. Three days before the test, rats were placed in the experimental environment to adapt to the experimental conditions. Rats having a basal body temperature of 37.5-39.0° C. were selected for test The rats were fasted for 12 hours before the test, and the body temperature of rats was measured once every 1 hour when tested. Average of three body temperature values (the temperature values would be removed if a difference between the highest value and the lowest value was greater than 0.5° C.) of rats was used as the basal body temperature.
# The rats were intragastrically administrated with baicalin or baicalin magnesium, and then immediately subcutaneously injected with 20% of dried yeast saline suspension (not for the control group). The administration mode was as follows: rats in the control group were intragastrically administrated with 2 ml/kg of normal saline and subcutaneously injected with 10 ml/kg of normal saline; rats in the model group were ntragastrically administrated 2 ml/kg of normal saline and subcutaneously injected with 2 g/kg of yeast; rats in the baicalin group were intragastrically administrated with 80 mg/kg of baicalin and subcutaneously injected with 2 g/kg of yeast; and rats in the baicalin magnesium group were intragastrically administrated with baicalin magnesium (equivalent to 80 mg/kg of baicalin) and subcutaneously injected with 2 g/kg of yeast. The body temperature of the rats was measured once every 2 hours for 14 hours to observe the temperature change of rats (ΔT, ° C.) at different time after injection of the yeast.
# [5] = 1 h after oral 100 mg/kg baicalin or equivalent
# [6] = 3 h after oral 100 mg/kg baicalin or equivalent
# [7] = 5 h after oral 100 mg/kg baicalin or equivalent
# [8] = 7 h after oral 100 mg/kg baicalin or equivalent
# [9] = 11 h after oral 100 mg/kg baicalin or equivalent
# [10] = 15 h after oral 100 mg/kg baicalin or equivalent
# [11] = 0 (after the molding, start of administration)
SMILES,Adsorption rate compared to baicalin [1],"Ear swelling degree (difference in weight left vs right ear) [2, 5]","Ear swelling degree (difference in weight left vs right ear) [2, 6] [mg]","Ear swelling degree (difference in weight left vs right ear) [2, 7] [mg]","Ear swelling degree (difference in weight left vs right ear) [2, 8] [mg]","Ear swelling degree (difference in weight left vs right ear) [2, 9]","Ear swelling degree (difference in weight left vs right ear) [2, 10]","Blood Glucose [3, 11] [mmol/L]",Blood Glucose ([3]; 3 weeks),Blood Glucose ([3]; 6 weeks),ΔT comparing the baicalin magnesium with the baicalin ([4]; 6 h) [°C],Body temperature change ΔT ([4]; 6 h after yeast 2 g/kg s.c.) [°C],ΔT comparing the baicalin magnesium with the baicalin ([4]; 8 h) [°C],Body temperature change ΔT ([4]; 8 h after yeast 2 g/kg s.c.) [°C]
"O=C(O)C1O[C@@H](Oc2cc3oc(-c4ccccc4)cc(=O)c3c(O)c2O)C(O)[C@@H](O)[C@@H]1O (stereo partly shown) [Baicalin Magnesium, baicalin magnesium]",faster adsorption rate,5.87 ± 2.05*^Δ mg,4.57 ± 3.56,4.63 ± 2.78,5.87 ± 3.43,6.77 ± 3.75*^Δ mg,7.97 ± 2.85^Δ mg,22.32 ± 2.23,19.46 ± 3.59*^Δ# mmol/L,17.58 ± 2.6*^Δ# mmol/L,0.2,0.2,0.5,0.3
O=C(O)[C@H]1O[C@@H](Oc2cc3oc(-c4ccccc4)cc(=O)c3c(O)c2O)[C@H](O)[C@@H](O)[C@@H]1O [Baicalin],–,7.57 ± 3.05 mg,4.66 ± 2.76,4.88 ± 1.99,6.77 ± 2.54,7.89 ± 2.98 mg,9.12 ± 1.98 mg,23.54 ± 2.5,21.45 ± 2.6 mmol/L,20.14 ± 2.6 mmol/L,–,0.4,–,0.8
